# What was measured:
# Neuropeptide Y Y1 = Neuropeptide Y Y1 (Homo sapiens (Human), UniProt P25929); assay: Radioligand binding assay No. 257010; details: test substance 10 μM, read-out: Inhibitory rate (%), Neuropeptide Y Y1
# Purinergic P2Y = assay: Radioligand binding assay No. 268810; details: test substance 10 μM; rat
# [1] = In vivo pharmacokinetics assay in rat; details: male, SD, plasma, rats; for Vd: read-out: Vss; for bioavailability: P.O 4 mg/kg vs I.V 2 mg/kg, read-out: F % (absolute bioavailability)
# Description: Test animals: male SD rats, weighing 190-260 g. Intravenous bolus injection (I.V.) and gavage (P.O.) administrations were each applied to three rats.
# Compound 5, for both I.V and P.O administrations, was solubilized with a solution of 30% DMF+50% PEG400+20%(0.9% sodium chloride injection)(the pH being adjusted with a suitable amount of an aqueous hydrochloric acid solution (2 mol/L)).
# Compound 6, for both I.V and P.O administrations, was solubilized with a solution of 30% DMF+30% PEG400+5%0.1 mol/lhydrochloric acid+[…] normal saline.
# Compound 30 for I.V administration was solubilized with a solution of 30% DMF+50% PEG400+20% normal saline; Compound 30 for P.O administration was solubilized with a solution of 5% DMSO+30% polyoxyethylene castor oil+65% normal saline.
# Compound 30 hydrochloride for I.V administration was solubilized with a solution of 30% DMF+50% PEG400+20% sterile water for injection.
# I.V blood sampling time point: 0.083 h, 0.25 h, 0.5 h, 1 h, 2 h, 4 h, 6 h, 8 h and 24 h after the administration, P.O blood sampling time point: 0.17 h, 0.5 h, 1 h, 2 h, 4 h, 6 h, 8 h and 24 h after the administration.
# About 100 μl of whole blood was taken at each time point, anticoagulated with heparin sodium, and centrifugated at 8,000 rpm in a high-speed centrifuge for 6 minutes to separate plasma, and the resulting plasma was frozen at −80° C. in a refrigerator.
# The plasma sample was treated with a liquid-liquid extraction. 20 μL of plasma was taken. A solution of BEZ-235 (Novartis, Phase II) in tertbutylmethylether (600 μL, 10 ng/mL) was added as internal standard. The mixture was rotated vertically at 1500 rpm for 10 mins and then centrifugated at 12000 rpm for 5 mins. 400 μL of the supernate was taken and dried under nitrogen. The dried substance was redissolved in 200 μL methanol:water (7:3, V/V) for LC-MS/MS analysis.
# Calculation Absolute bioavailability F%=[AUC]last (P.O)*Dose(I.V)/[AUC]last (I.V)*Dose(P.O)
# Bradykinin B2 = Bradykinin B2 (Homo sapiens (Human), UniProt P30411); assay: Radioligand binding assay No. 212620; details: test substance 10 μM, read-out: Inhibitory rate (%), Bradykinin B2
# Sequence of Bradykinin B2 (P30411 whole entry): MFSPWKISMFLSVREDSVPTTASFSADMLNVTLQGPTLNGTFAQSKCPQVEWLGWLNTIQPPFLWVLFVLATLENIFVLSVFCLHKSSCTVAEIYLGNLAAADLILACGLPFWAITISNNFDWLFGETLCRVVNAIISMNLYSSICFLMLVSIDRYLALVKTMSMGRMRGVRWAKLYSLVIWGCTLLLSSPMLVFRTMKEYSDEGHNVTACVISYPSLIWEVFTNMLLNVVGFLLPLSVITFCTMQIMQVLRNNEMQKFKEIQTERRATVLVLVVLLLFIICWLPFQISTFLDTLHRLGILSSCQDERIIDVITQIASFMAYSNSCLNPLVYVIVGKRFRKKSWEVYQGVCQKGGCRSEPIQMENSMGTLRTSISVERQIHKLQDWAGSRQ
# [2] = target: Serotonin (5-Hydroxytryptamine) 5-HT3 (Homo sapiens (Human), UniProt P46098); assay: Radioligand binding assay No. 271910; details: test substance 10 μM, read-out: Inhibitory rate (%), Serotonin (5-Hydroxytryptamine) 5-HT3
# Sequence of Serotonin (5-Hydroxytryptamine) 5-HT3 (P46098 24-478): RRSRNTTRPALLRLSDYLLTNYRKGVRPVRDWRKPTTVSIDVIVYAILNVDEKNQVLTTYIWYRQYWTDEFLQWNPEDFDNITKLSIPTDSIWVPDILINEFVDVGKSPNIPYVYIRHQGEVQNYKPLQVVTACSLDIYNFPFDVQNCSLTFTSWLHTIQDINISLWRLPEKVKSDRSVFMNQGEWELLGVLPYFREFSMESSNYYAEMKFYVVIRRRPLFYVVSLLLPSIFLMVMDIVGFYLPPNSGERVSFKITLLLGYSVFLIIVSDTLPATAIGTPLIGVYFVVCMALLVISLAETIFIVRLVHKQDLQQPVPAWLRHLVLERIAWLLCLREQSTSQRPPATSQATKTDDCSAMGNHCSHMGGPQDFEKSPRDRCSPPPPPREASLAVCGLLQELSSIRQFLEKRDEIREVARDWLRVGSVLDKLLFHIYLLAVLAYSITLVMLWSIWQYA
# PC-3 = assay: In vitro cytological inhibitory activity (XTT); type: cell-based; details: Homo sapiens, 72 hrs
# Description: PC-3: Human prostatic carcinoma cell line;
# 1. Preparation of agents and compounds:
# • 1.1 Preparation of phosphoric acid buffering solution (PBS): 8 g NaCl, 0.2 g KCl, 1.44 g Na2HPO4 and 0.24 g KH2PO4 were weighed and added to 800 mL ultrapure water. The mixture was adjusted to pH=7.4, and ultrapure water was added to the metered volume of IL. Then the autoclaving was conducted for 20 mins. • 1.2 Preparation of XTT detection working solution: 100 mg (2,3-Bis-(2-methoxy-4-nitro-5-sulfophenyl)-2H-tetrazolium-5-carboxanilide); 2,3-bis(2-methoxy-4-nitro-5-sulfophenyl)-5-[(phenylamino)carbonyl]-2H-tetrazolium hydroxide (XTT) powder was weighed, and dissolved under protection from light 300 mL of phenol red-free and serum-free RPMI1640 culture, which had been warmed up to 50° C. The resulting mixture was filtered, packaged and used immediately or in one week. The complete process was conducted under protection from light. • 1.3 Preparation of the test compound • Preparation of the stock solution of the test compound: The test compound powder was dissolved in DMSO in a concentration of 10 mM. • Preparation of the gradiently diluted solution of the test compound: 10 mM of the stock solution of the test compound was successively and gradiently diluted with DMSO by 4 folds for 10 concentrations. […]
# Sequence of Neuropeptide Y Y1 (P25929 whole entry): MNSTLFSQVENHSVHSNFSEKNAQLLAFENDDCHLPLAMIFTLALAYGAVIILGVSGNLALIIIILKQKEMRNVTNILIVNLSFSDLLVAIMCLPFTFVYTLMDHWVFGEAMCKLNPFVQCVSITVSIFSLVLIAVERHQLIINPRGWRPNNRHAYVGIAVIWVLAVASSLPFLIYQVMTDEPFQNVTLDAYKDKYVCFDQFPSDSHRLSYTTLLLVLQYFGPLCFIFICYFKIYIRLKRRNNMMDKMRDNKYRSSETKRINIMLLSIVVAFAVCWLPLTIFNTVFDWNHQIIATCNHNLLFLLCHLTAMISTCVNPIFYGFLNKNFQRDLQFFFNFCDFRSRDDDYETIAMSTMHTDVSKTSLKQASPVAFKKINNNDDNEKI
IC50 (PC-3) [nM],Structure (SMILES),inhibition at 10 µM (Neuropeptide Y Y1) [%],"Inhibitory rate (%), Purinergic P2Y (Purinergic P2Y) [%]","AUC(0-inf) ([1]; iv, I.V, 2 mg/kg) [ng·h/mL]","AUC(0-t) ([1]; iv, I.V, 2 mg/kg) [ng·h/mL]","clearance ([1]; iv, I.V, 2 mg/kg) [mL/min/kg]","half-life ([1]; iv, I.V, 2 mg/kg) [h]","Vd ([1]; iv, I.V, 2 mg/kg) [L/kg]",bioavailability ([1]; po) [%],"AUC(0-inf) ([1]; po, P.O, 4 mg/kg) [ng·h/mL]","AUC(0-t) ([1]; po, P.O, 4 mg/kg) [ng·h/mL]","Cmax ([1]; po, P.O, 4 mg/kg) [ng/mL]","Tmax ([1]; po, P.O, 4 mg/kg) [h]","half-life ([1]; po, P.O, 4 mg/kg) [h]",inhibition at 10 µM (Bradykinin B2) [%],inhibition at 10 µM [2] [%]
–,"Nc1ccc(-c2ccc3ncc4c(=O)[nH]c(=O)n(-c5cccc(C(F)(F)F)c5)c4c3n2)cn1 [Compound 5, 9-(6-aminopyridin-3-yl)-1-(3-(trifluoromethyl)phenyl)pyrimido[5,4-c][1,5]naphthyridine-2,4(1H,3H)-dione]",3,9,9360,9130,3.5,4.72,1.26,14,2590,2550,205,6,5.77,24,8
25.6,"O=c1[nH]c(=O)n(-c2cccc(C(F)(F)F)c2)c2c1cnc1ccc(-c3cnc4[nH]ccc4c3)nc12 [Compound 30, 9-(1H-pyrrolo[2,3-b]pyridin-5-yl)-1-(3-(trifluoromethyl)phenyl)pyrimido[5,4-c][1,5]naphthyridine-2,4(1H,3H)-dione]",–,–,3070,3050,11,3.89,1.85,12.8,785,654,54.8,2,9.42,–,–
